Structures are written as SMILES. Starred links: 1 amine or outer side, 2 acyl side, 3 side chain; linkers in the order of their positions; H or OH if unused. Positions of bridges follow the written chain, without caps; N, C: chain ends. Non-standard residues stand in square brackets, D forms with d. Residues, ends and D or L forms follow the SMILES beside them. Groups on a side chain read outwards from the residue. Triazole bridges read from a SMILES are 1,4-linked. *: point of attachment. Lys(N3) = [N-]=[N+]=NCCCC[C@H](N)C(=O)O; γGlu = O=C(O)[C@H](CCC(=O)[*:2])N[*:1]; Met(O2) = CS(=O)(=O)CC[C@H](N)C(=O)O; Palmitoyl = CCCCCCCCCCCCCCCC(=O)*; dPra = C#CC[C@@H](N)C(=O)O; Nle = CCCC[C@H](N)C(=O)O; Aib = CC(C)(N)C(=O)O

Results on seven compounds are retold here after US20230063794A1, “STAPLED TRIAZOLE CO-AGONISTS OF THE GLUCAGON AND GLP-1 RECEPTORS” (Merck Sharp & Dohme LLC, priority 2019, published 2023).

The target in this experiment is T1, human GCGR (Homo sapiens, UniProt P47871).
T1 construct: expressed in transfected cells; grown under Blasticidin and Hygromycin selection
T1 sequence (P47871 26-477): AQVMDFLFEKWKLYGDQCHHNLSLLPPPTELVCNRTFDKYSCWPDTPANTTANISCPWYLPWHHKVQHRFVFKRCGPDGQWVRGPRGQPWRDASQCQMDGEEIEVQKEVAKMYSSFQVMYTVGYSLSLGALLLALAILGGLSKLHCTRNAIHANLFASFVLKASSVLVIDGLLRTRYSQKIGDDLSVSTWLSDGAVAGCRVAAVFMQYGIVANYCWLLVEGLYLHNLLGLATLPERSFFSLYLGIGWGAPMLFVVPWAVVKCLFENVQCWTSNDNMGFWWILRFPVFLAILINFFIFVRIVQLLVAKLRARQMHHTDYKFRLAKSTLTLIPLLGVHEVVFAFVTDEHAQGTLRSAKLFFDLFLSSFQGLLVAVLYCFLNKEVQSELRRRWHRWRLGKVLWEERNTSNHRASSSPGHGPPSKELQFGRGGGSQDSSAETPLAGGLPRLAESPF
The experiment is described as follows: cAMP activity assay in cells expressing human GCGR. The format is cell-based. To be noted: ratio of human GCGR EC50 to human GLP1R EC50. How it is done:
Activity of the peptides at the Glucagon receptor (GCGR) and GLP-1 receptor (GLP1R) was measured in a cAMP activity assay.
Peptides were dissolved in 100% DMSO and serially diluted to generate 10 point titrations. The peptide solutions were then transferred into 384-well assay plates (150 nL/well). Assay ready frozen cells expressing human GLP1R or human GCGR were suspended in growth media consisting of DMEM medium (GIBCO), 10% FBS (GIBCO), 1× NEAA(GIBCO), 1× P/S (GIBCO), 10 ug/ml Blasticidin (GIBCO) and 200 μg/mL Hygromycin (GIBCO). Cells were then diluted in assay buffer consisting of PBS (GIBCO), 7.5% BSA (Perkin Elmer), 100 μM RO 20-1724 (Sigma), with or without 20% human serum (MP Biomedical). The cell suspensions (15 μL) were then added to the assay plates containing the peptide solutions (30,000 cells/well for human GCGR; 10,000 cells/well for human GLP1R). The cells were incubated for 1 hour at room temperature in the dark. Production of cAMP was determined using HitHunter™ cAMPXS kits (DiscoverX) following manufacturer protocol. The plates were incubated for overnight at room temperature in the dark. Luminescence was measured using an EnVision Multilabel plate reader (Perkin Elmer). Native GLP-1 and Glucagon (Bachem) are used as control peptides. EC50 values were calculated using uses a 4 parameter logistic fit based on the Levenberg-Marquardt algorithm.
For `CCCCCCCCCCCCCCCC(=O)N[C@@H](CCC(=O)N[C@@H](CCC(=O)NCCCC[C@H](NC(=O)[C@H](CC(=O)O)NC(=O)[C@H](CO)NC(=O)[C@@H](NC(=O)[C@H](Cc1ccccc1)NC(=O)[C@@H](NC(=O)CNC(=O)[C@H](CCC(N)=O)NC(=O)C(C)(C)NC(=O)[C@@H](N)Cc1c[nH]cn1)[C@@H](C)O)[C@@H](C)O)C(=O)N[C@@H](CO)C(=O)N[C@@H](CCCCN)C(=O)N[C@@H](Cc1ccc(O)cc1)C(=O)N[C@@H](CC(C)C)C(=O)N[C@@H](CC(=O)O)C(=O)NC(C)(C)C(=O)N[C@@H](CCCNC(=N)N)C(=O)N[C@@H](C)C(=O)N[C@@H](C)C(=O)N[C@@H]1Cc2cn(nn2)CCCC[C@@H](C(=O)N[C@@H](Cc2c[nH]c3ccccc23)C(=O)N[C@@H](CC(C)C)C(=O)N[C@@H](CCCC)C(=O)N[C@@H](CC(=O)O)C(=O)N[C@H](C(N)=O)[C@@H](C)O)NC(=O)[C@H](C(C)C)NC(=O)[C@H](Cc2ccccc2)NC(=O)[C@H](CC(=O)O)NC1=O)C(=O)O)C(=O)O` [compound 17] (H-H[Aib]QGTFTSDK([γGlu-γGlu-Palmitoyl])SKYLD[Aib]RAA[dPra]DFV[Lys(N3)]WL[Nle]DT-NH2; triazole 20-24), the “hGCGR/hGLP1R (hTone)” value was 2.25.

For `CCCCCCCCCCCCCCCC(=O)N[C@@H](CCC(=O)N[C@@H](CCC(=O)NCCCC[C@H](NC(=O)[C@H](CC(=O)O)NC(=O)[C@H](CO)NC(=O)[C@@H](NC(=O)[C@H](Cc1ccccc1)NC(=O)[C@@H](NC(=O)CNC(=O)[C@H](CCC(N)=O)NC(=O)C(C)(C)NC(=O)[C@@H](N)Cc1c[nH]cn1)[C@@H](C)O)[C@@H](C)O)C(=O)N[C@@H](CO)C(=O)N[C@@H](CCCCN)C(=O)N[C@@H](Cc1ccc(O)cc1)C(=O)N[C@@H](CC(C)C)C(=O)N[C@@H](CC(=O)O)C(=O)NC(C)(C)C(=O)N[C@@H](CCCNC(=N)N)C(=O)N[C@@H](C)C(=O)N[C@@H](C)C(=O)N[C@@H]1Cc2cn(nn2)CCCC[C@@H](C(=O)N[C@@H](Cc2c[nH]c3ccccc23)C(=O)N[C@@H](CC(C)C)C(=O)N[C@@H](CCS(C)(=O)=O)C(=O)N[C@@H](CC(=O)O)C(=O)N[C@H](C(=O)N[C@@H](CCCCN)C(=O)N[C@@H](CCC(N)=O)C(=O)O)[C@@H](C)O)NC(=O)[C@H](C(C)C)NC(=O)[C@H](Cc2ccccc2)NC(=O)[C@H](CC(=O)O)NC1=O)C(=O)O)C(=O)O` [compound 21] (H-H[Aib]QGTFTSDK([γGlu-γGlu-Palmitoyl])SKYLD[Aib]RAA[dPra]DFV[Lys(N3)]WL[Met(O2)]DTKQ-OH; triazole 20-24), the “hGCGR/hGLP1R (hTone)” value was 4.5. With `CCCCCCCCCCCCCCCC(=O)N[C@@H](CCC(=O)N[C@@H](CCC(=O)NCCCC[C@H](NC(=O)[C@H](CC(=O)O)NC(=O)[C@H](CO)NC(=O)[C@@H](NC(=O)[C@H](Cc1ccccc1)NC(=O)[C@@H](NC(=O)CNC(=O)[C@H](CCC(N)=O)NC(=O)[C@@H](CO)NC(=O)[C@@H](N)Cc1c[nH]cn1)[C@@H](C)O)[C@@H](C)O)C(=O)N[C@@H](CO)C(=O)N[C@@H](CCCCN)C(=O)N[C@@H](Cc1ccc(O)cc1)C(=O)N[C@@H](CC(C)C)C(=O)N[C@@H](CC(=O)O)C(=O)N[C@@H]1Cc2cn(nn2)CCCC[C@@H](C(=O)N[C@@H](CC(=O)O)C(=O)N[C@@H](Cc2ccccc2)C(=O)N[C@H](C(=O)N[C@@H](CCC(N)=O)C(=O)N[C@@H](Cc2c[nH]c3ccccc23)C(=O)N[C@@H](CC(C)C)C(=O)N[C@@H](CC(C)C)C(=O)N[C@@H](CC(=O)O)C(=O)N[C@H](C(N)=O)[C@@H](C)O)C(C)C)NC(=O)[C@H](C)NC(=O)[C@H](C)NC(=O)[C@H](CCCNC(=N)N)NC1=O)C(=O)O)C(=O)O` [compound 12] (H-H[dS]QGTFTSDK([γGlu-γGlu-Palmitoyl])SKYLD[dPra]RAA[Lys(N3)]DFVQWLLDT-NH2; triazole 16-20) the figure was 0.8.

As for `CC(C)C[C@H](NC(=O)[C@H](Cc1ccc(O)cc1)NC(=O)[C@H](CCCCN)NC(=O)[C@H](CO)NC(=O)[C@H](CCCCN)NC(=O)[C@H](CC(=O)O)NC(=O)[C@H](CO)NC(=O)[C@@H](NC(=O)[C@H](Cc1ccccc1)NC(=O)[C@@H](NC(=O)CNC(=O)[C@H](CCC(N)=O)NC(=O)[C@@H](CO)NC(=O)[C@@H](N)Cc1c[nH]cn1)[C@@H](C)O)[C@@H](C)O)C(=O)N[C@@H](CC(=O)O)C(=O)N[C@@H](CCC(=O)O)C(=O)N[C@@H](CCCNC(=N)N)C(=O)N[C@@H](C)C(=O)N[C@@H](C)C(=O)N[C@@H]1Cc2cn(nn2)CCCC[C@@H](C(=O)N[C@@H](Cc2c[nH]c3ccccc23)C(=O)N[C@@H](CC(C)C)C(=O)N[C@@H](CC(C)C)C(=O)N[C@@H](CC(=O)O)C(=O)N[C@H](C(N)=O)[C@@H](C)O)NC(=O)[C@H](C(C)C)NC(=O)[C@H](Cc2ccccc2)NC(=O)[C@H](CC(=O)O)NC1=O` [compound 9] (H-H[dS]QGTFTSDKSKYLDERAA[dPra]DFV[Lys(N3)]WLLDT-NH2; triazole 20-24), the “hGCGR/hGLP1R (hTone)” value is 1.92. With `CCCCCCCCCCCCCCCC(=O)N[C@@H](CCC(=O)N[C@@H](CCC(=O)NCCCC[C@H](NC(=O)[C@H](CC(=O)O)NC(=O)[C@H](CO)NC(=O)[C@@H](NC(=O)[C@H](Cc1ccccc1)NC(=O)[C@@H](NC(=O)CNC(=O)[C@H](CCC(N)=O)NC(=O)C(C)(C)NC(=O)[C@@H](N)Cc1c[nH]cn1)[C@@H](C)O)[C@@H](C)O)C(=O)N[C@@H](CO)C(=O)N[C@@H](CCCCN)C(=O)N[C@@H](Cc1ccc(O)cc1)C(=O)N[C@@H](CC(C)C)C(=O)N[C@@H](CC(=O)O)C(=O)NC(C)(C)C(=O)N[C@@H]1Cc2cn(nn2)CCCC[C@@H](C(=O)N[C@@H](Cc2ccccc2)C(=O)N[C@H](C(=O)N[C@@H](CCC(N)=O)C(=O)N[C@@H](Cc2c[nH]c3ccccc23)C(=O)N[C@@H](CC(C)C)C(=O)N[C@@H](CCCC)C(=O)N[C@@H](CC(=O)O)C(=O)N[C@H](C(N)=O)[C@@H](C)O)C(C)C)NC(=O)[C@H](CCC(N)=O)NC(=O)[C@H](C)NC(=O)[C@H](C)NC1=O)C(=O)O)C(=O)O` [compound 18] (H-H[Aib]QGTFTSDK([γGlu-γGlu-Palmitoyl])SKYLD[Aib][dPra]AAQ[Lys(N3)]FVQWL[Nle]DT-NH2; triazole 17-21) the figure was 1.96. Turning to `CCCCCCCCCCCCCCCC(=O)N[C@@H](CCC(=O)N[C@@H](CCC(=O)NCCCC[C@H](NC(=O)[C@H](CC(=O)O)NC(=O)[C@H](CO)NC(=O)[C@@H](NC(=O)[C@H](Cc1ccccc1)NC(=O)[C@@H](NC(=O)CNC(=O)[C@H](CCC(N)=O)NC(=O)[C@@H](CO)NC(=O)[C@@H](N)Cc1c[nH]cn1)[C@@H](C)O)[C@@H](C)O)C(=O)N[C@@H](CO)C(=O)N[C@@H](CCCCN)C(=O)N[C@@H](Cc1ccc(O)cc1)C(=O)N[C@@H](CC(C)C)C(=O)N[C@@H](CC(=O)O)C(=O)N[C@@H](C)C(=O)N[C@@H](CCCNC(=N)N)C(=O)N[C@@H](C)C(=O)N[C@@H](C)C(=O)N[C@@H]1Cc2cn(nn2)CCCC[C@@H](C(=O)N[C@@H](Cc2c[nH]c3ccccc23)C(=O)N[C@@H](CC(C)C)C(=O)N[C@@H](CC(C)C)C(=O)N[C@@H](CC(=O)O)C(=O)N[C@H](C(N)=O)[C@@H](C)O)NC(=O)[C@H](C(C)C)NC(=O)[C@H](Cc2ccccc2)NC(=O)[C@H](CC(=O)O)NC1=O)C(=O)O)C(=O)O` [compound 13] (H-H[dS]QGTFTSDK([γGlu-γGlu-Palmitoyl])SKYLDARAA[dPra]DFV[Lys(N3)]WLLDT-NH2; triazole 20-24), the “hGCGR/hGLP1R (hTone)” value came to 0.4. With `CCCCCCCCCCCCCCCC(=O)N[C@@H](CCC(=O)N[C@@H](CCC(=O)NCCCC[C@H](NC(=O)[C@H](CC(=O)O)NC(=O)[C@H](CO)NC(=O)[C@@H](NC(=O)[C@H](Cc1ccccc1)NC(=O)[C@@H](NC(=O)CNC(=O)[C@H](CCC(N)=O)NC(=O)[C@@H](CO)NC(=O)[C@@H](N)Cc1c[nH]cn1)[C@@H](C)O)[C@@H](C)O)C(=O)N[C@@H](CO)C(=O)N[C@@H](CCCCN)C(=O)N[C@@H](Cc1ccc(O)cc1)C(=O)N[C@@H](CC(C)C)C(=O)N[C@@H](CC(=O)O)C(=O)N[C@@H](C)C(=O)N[C@@H](CCCNC(=N)N)C(=O)N[C@@H](C)C(=O)N[C@@H](C)C(=O)N[C@@H](CCC(N)=O)C(=O)N[C@@H](CC(=O)O)C(=O)N[C@@H](Cc1ccccc1)C(=O)N[C@H](C(=O)N[C@H]1CCCCn2cc(nn2)C[C@H](C(=O)N[C@H](C(N)=O)[C@@H](C)O)NC(=O)[C@H](CC(C)C)NC(=O)[C@H](CC(C)C)NC(=O)[C@H](Cc2c[nH]c3ccccc23)NC1=O)C(C)C)C(=O)O)C(=O)O` [compound 24] (H-H[dS]QGTFTSDK([γGlu-γGlu-Palmitoyl])SKYLDARAAQDFV[Lys(N3)]WLL[dPra]T-NH2; triazole 24-28; N-terminus assumed) the figure was 0.54.
